Converted amounts (≈) assume the structure as drawn. Counter-ions that a name gives are not always drawn. Like-named read-outs stand apart in the source and are kept apart here.
What was measured:
Assay in all cases: Antibacterial activities, MIC
Assay type in all cases: cell-based
Staph. aureus 209-P = test system: Staph. aureus 209-P
Escher. coli NIHJ = test system: Escher. coli NIHJ
Kleb Pneumoniae EK-6 = test system: Kleb Pneumoniae EK-6
Ser. marcescens ES-75 = test system: Ser. marcescens ES-75
Morg. morganii EP-14 = test system: Morg. morganii EP-14
Pseud. aeruginosa EP-01 = test system: Pseud. aeruginosa EP-01
[1] = Staphylococcus aureus, read-out: MIC
[2] = Escherichia coli, read-out: MIC
[3] = Serratia marcescens, ES75, read-out: MIC
[4] = Morganella morganii, EP14, Morg. morganii EP-14, read-out: MIC
[5] = Pseudomonas aeruginosa, EP01, Pseud. aeruginosa EP-01, read-out: MIC

| Structure (SMILES) | MIC (Staph. aureus 209-P; [1]) [µg/mL] | MIC (Escher. coli NIHJ; [2]) [µg/mL] | MIC (Kleb Pneumoniae EK-6; read-out: MIC) [µg/mL] | MIC (Ser. marcescens ES-75; [3]) [µg/mL] | MIC (Morg. morganii EP-14; [4]) [µg/mL] | MIC (Pseud. aeruginosa EP-01; [5]) [µg/mL] | MIC (Staph. aureus 209-P) [µg/mL] | MIC (Escher. coli NIHJ) [µg/mL] | MIC (Kleb Pneumoniae EK-6) [µg/mL] | MIC (Ser. marcescens ES-75) [µg/mL] | MIC (Morg. morganii EP-14; Morg. morganii EP-14) [µg/mL] | MIC (Pseud. aeruginosa EP-01; Pseud. aeruginosa EP-01) [µg/mL] |
| --- | --- | --- | --- | --- | --- | --- | --- | --- | --- | --- | --- | --- |
| CO/N=C(\C(=O)N[C@@H]1C(=O)N2C(C(=O)[O-])=C(/C=C/C[N+]3(C)CCCN3C)CS[C@H]12)c1nsc(N)n1 (single isomer, unassigned) [Example 30-A, 7β-[2-(5-Amino-1,2,4-thiadiazol-3-yl)-(Z)-2-methoxyiminoacetamido]-3-[(E)-(1,2-dimethyl-1-pirazolydinio)-1-propen-1-yl]-3-cephem-4-carboxylate] | 0.1 (≈ 0.191 µM) | ≤ 0.025 | ≤ 0.025 | 0.05 (≈ 0.0957 µM) | ≤ 0.025 | 0.4 (≈ 0.765 µM) | – | – | – | – | – | – |
| CO/N=C(\C(=O)N[C@@H]1C(=O)N2C(C(=O)[O-])=C(/C=C/C[N+]3(C)CCCN3C)CS[C@H]12)c1nsc(N)n1 (single isomer, unassigned) [Example 30-B, 7β-[2-(5-Amino-1,2,4-thiadiazol-3-yl)-(Z)-2-methoxyiminoacetamido]-3-[(E)-(1,2-dimethyl-1-pirazolydinio)-1-propen-1-yl]-3-cephem-4-carboxylate] | – | – | – | – | – | – | 0.1 (≈ 0.191 µM) | ≤ 0.025 | ≤ 0.025 | 0.05 (≈ 0.0957 µM) | 0.05 (≈ 0.0957 µM) | 0.8 (≈ 1.53 µM) |
| CO/N=C(\C(=O)N[C@@H]1C(=O)N2C(C(=O)[O-])=C(/C=C/C[N+]3(C)CC=CC3)CS[C@H]12)c1nsc(N)n1 [Example 2, 7β-[2-(5-Amino-1,2,4-thiadiazol-3-yl)-(Z)-2-methoxyiminoacetamido]-3-[(E)-3-(1-methyl-3-pyrrolinio)-1-propene-1-yl)-3-cephem-4-carboxylate] | 0.2 (≈ 0.396 µM) | 0.05 (≈ 0.0989 µM) | ≤ 0.025 | 0.1 (≈ 0.198 µM) | 0.05 (≈ 0.0989 µM) | 1.56 (≈ 3.09 µM) | – | – | – | – | – | – |
| CO/N=C(\C(=O)N[C@@H]1C(=O)N2C(C(=O)[O-])=C(/C=C/C[N+]3(C)CCC[C@H]3CO)CS[C@H]12)c1nsc(N)n1 (stereo partly drawn) [Example 3, 7β-[2-(5-Amino-1,2,4-thiadiazol-3-yl)-(Z)-2-methoxyiminoacetamido]-3-[(E)-3-((2S)-2-hydroxymethyl-1-methylpyrrolidinio)-1-propen-1-yl]-3-cephem-4-carboxylate] | 0.2 (≈ 0.372 µM) | 0.05 (≈ 0.093 µM) | ≤ 0.025 | 0.1 (≈ 0.186 µM) | 0.05 (≈ 0.093 µM) | 1.56 (≈ 2.9 µM) | – | – | – | – | – | – |
| CO/N=C(\C(=O)N[C@@H]1C(=O)N2C(C(=O)[O-])=C(/C=C/C[N+]34CCC(C(N)=O)(CC3)CC4)CS[C@H]12)c1nsc(N)n1 [Example 4, 7β-[2-(5-Amino-1,2,4-thiadiazol-3-yl)-(Z)-2-methoxyiminoacetamido]-3-[(E)-3-(4-carbamoylquinuclidinio)-1-propen-1-yl]-3-cephem-4-carboxylate] | 0.4 (≈ 0.694 µM) | 0.05 (≈ 0.0867 µM) | ≤ 0.025 | 0.1 (≈ 0.173 µM) | 0.05 (≈ 0.0867 µM) | 1.56 (≈ 2.71 µM) | – | – | – | – | – | – |
| CO/N=C(\C(=O)N[C@@H]1C(=O)N2C(C(=O)[O-])=C(/C=C/C[N+]3(C)CCNCC3)CS[C@H]12)c1nsc(N)n1 [Example 5, 7β-[(2-(5-Amino-1,2,4-thiadiazol-3-yl)-(Z)-2-methoxyiminoacetamido]-3-[(E)-3-(1-methyl-1-piperadinio)-1-propen-1-yl]-3-cephem-4-carboxylate trifluoroacetate] | 0.2 | 0.05 | ≤ 0.025 | 0.1 | 0.1 | 0.8 | – | – | – | – | – | – |
| CC[N+](CC)(C/C=C/C1=C(C(=O)[O-])N2C(=O)[C@@H](NC(=O)/C(=N\OC)c3nsc(N)n3)[C@H]2SC1)CC(N)=O [Example 11, 7β-[2-(5-Amino-1,2,4-thiadiazol-3-yl)-(Z)-2-methoxyiminoacetamido]-3-[(E)-3-(carbamoylmethyldiethylammonio)-1-propen-1-yl]-3-cephem-4-carboxylate] | 0.2 (≈ 0.362 µM) | 0.05 (≈ 0.0905 µM) | ≤ 0.025 | 0.1 (≈ 0.181 µM) | 0.05 (≈ 0.0905 µM) | 1.56 (≈ 2.82 µM) | – | – | – | – | – | – |
| CO/N=C(\C(=O)N[C@@H]1C(=O)N2C(C(=O)[O-])=C(/C=C/C[N+](C)(C)CCN(C)C)CS[C@H]12)c1nsc(N)n1 [Example 12, 7β-[2-(5-Amino-1,2,4-thiadiazol-3-yl)-(Z)-2-methoxyiminoacetamido]-3-[(E)-3-(2-dimethylaminoethyldimethylammonio)-1-propen-1-yl]-3-cephem-4-carboxylate] | 0.4 (≈ 0.743 µM) | 0.05 (≈ 0.0928 µM) | 0.05 (≈ 0.0928 µM) | 0.1 (≈ 0.186 µM) | 0.1 (≈ 0.186 µM) | 1.56 (≈ 2.9 µM) | – | – | – | – | – | – |
| CO/N=C(\C(=O)N[C@@H]1C(=O)N2C(C(=O)[O-])=C(/C=C/C[n+]3ccc4n3CCOC4)CS[C@H]12)c1nsc(N)n1 [Example 14, 7β-[2-(5-Amino-1,2,4-thiadiazol-3-yl)-(Z)-2-methoxyiminoacetamido]-3-[(E)-(1-morpholino[4,3-b]pyrazolio)-1-propen-1-yl]-3-cephem-4-carboxylate] | 0.2 (≈ 0.366 µM) | ≤ 0.025 | ≤ 0.025 | 0.05 (≈ 0.0915 µM) | 0.05 (≈ 0.0915 µM) | 1.56 (≈ 2.85 µM) | – | – | – | – | – | – |
| CCO/N=C(\C(=O)N[C@@H]1C(=O)N2C(C(=O)[O-])=C(/C=C/C[N+](C)(C)CC(N)=O)CS[C@H]12)c1nsc(N)n1 [Example 15, 7β-[2-(5-Amino-1,2,4-thiadiazol-3-yl)-(Z)-2-ethoxyiminoacetamido]-3-[(E)-3-(carbamoylmethyldimethylammonio)-1-propen-1-yl]-3-cephem-4-carboxylate] | 0.2 (≈ 0.371 µM) | 0.1 (≈ 0.186 µM) | 0.05 (≈ 0.0928 µM) | 0.2 (≈ 0.371 µM) | 0.05 (≈ 0.0928 µM) | 1.56 (≈ 2.9 µM) | – | – | – | – | – | – |
| CO/N=C(\C(=O)N[C@@H]1C(=O)N2C(C(=O)[O-])=C(/C=C/C[N+](C)(C)CC(C)=O)CS[C@H]12)c1nsc(N)n1 [Example 17, 7β-[2-(5-Amino-1,2,4-thiadiazol-3-yl)-(Z)-2-methoxyiminoacetamido]-3-[(E)-3-(2-oxopropyldimethylammonio)-1-propen-1-yl]-3-cephem-4-carboxylate] | 0.4 (≈ 0.764 µM) | 0.05 (≈ 0.0955 µM) | 0.05 (≈ 0.0955 µM) | 0.1 (≈ 0.191 µM) | 0.1 (≈ 0.191 µM) | 1.56 (≈ 2.98 µM) | – | – | – | – | – | – |
| CO/N=C(\C(=O)N[C@@H]1C(=O)N2C(C(=O)[O-])=C(/C=C/C[N+](C)(C)CCO)CS[C@H]12)c1nsc(N)n1 [Example 18-A, 7β-[2-(5-Amino-1,2,4-thiadiazol-3-yl)-(Z)-2-methoxyiminoacetamido]-3-[(E)-3-(2-hydroxyethyldimethylammonio)-1-propen-1-yl]-3-cephem-4-carboxylate] | 0.2 (≈ 0.391 µM) | ≤ 0.025 | ≤ 0.025 | 0.1 (≈ 0.195 µM) | 0.05 (≈ 0.0977 µM) | 0.8 (≈ 1.56 µM) | – | – | – | – | – | – |
| CO/N=C(\C(=O)N[C@@H]1C(=O)N2C(C(=O)[O-])=C(/C=C/C[N+](C)(C)Cc3ncon3)CS[C@H]12)c1nsc(N)n1 [Example 21] | 0.2 (≈ 0.364 µM) | ≤ 0.025 | ≤ 0.025 | 0.05 (≈ 0.091 µM) | ≤ 0.025 | 1.56 (≈ 2.84 µM) | – | – | – | – | – | – |
| CO/N=C(\C(=O)N[C@@H]1C(=O)N2C(C(=O)[O-])=C(/C=C/C[N+](C)(C)Cc3cnc[nH]3)CS[C@H]12)c1nsc(N)n1 [Example 22] | 0.2 (≈ 0.365 µM) | 0.05 (≈ 0.0913 µM) | 0.05 (≈ 0.0913 µM) | 0.1 (≈ 0.183 µM) | 0.05 (≈ 0.0913 µM) | 1.56 (≈ 2.85 µM) | – | – | – | – | – | – |
| CO/N=C(\C(=O)N[C@@H]1C(=O)N2C(C(=O)[O-])=C(/C=C/C[N+](C)(C)Cc3cscn3)CS[C@H]12)c1nsc(N)n1 [Example 23, 7β-[2-(5-Amino-1,2,4-thiadiazol-3-yl)-(Z)-2-methoxyiminoacetamido]-3-[(E)-3[(thiazol-4-yl)methyldimethylammonio]-1-propen-1-yl]-3-cephem-4-carboxylate] | 0.2 (≈ 0.354 µM) | ≤ 0.025 | ≤ 0.025 | 0.05 (≈ 0.0885 µM) | ≤ 0.025 | 3.13 (≈ 5.54 µM) | – | – | – | – | – | – |
| CO/N=C(\C(=O)N[C@@H]1C(=O)N2C(C(=O)[O-])=C(/C=C/C[N+](C)(C)Cc3cc[nH]n3)CS[C@H]12)c1nsc(N)n1 [Example 24, 7β-[2-(5-Amino-1,2,4-thiadiazol-3-yl)-(Z)-2-methoxyiminoacetamido]-3-[(E)-3-[(pyrazol-3-yl)methyldimethylammonio]-1-propen-1-yl]-3-cephem-4-carboxylate] | 0.2 (≈ 0.365 µM) | ≤ 0.025 | ≤ 0.025 | 0.1 (≈ 0.183 µM) | 0.05 (≈ 0.0913 µM) | 3.13 (≈ 5.72 µM) | – | – | – | – | – | – |
| CO/N=C(\C(=O)N[C@@H]1C(=O)N2C(C(=O)[O-])=C(/C=C/C[N+]3(CC(N)=O)CC[C@@H](O)C3)CS[C@H]12)c1nsc(N)n1 (some centres unmarked) [Example 45-2] | – | – | – | – | – | – | 0.4 (≈ 0.706 µM) | 0.05 (≈ 0.0882 µM) | ≤ 0.025 | – | ≤ 0.025 | 0.8 (≈ 1.41 µM) |

Reference: patent US5373000A, “7Beta-(thiadiazolyl)-2-iminoacetamido-3cephem compounds” (Eisai Co., Ltd., priority 1985, dated 1994)
